Test results taken from patent US20130317029A1 (PORTOLA PHARMACEUTICALS, INC., priority 2010, published 2013).

What follows are compounds tested against T1, full length active recombinant SYK enzyme (Homo sapiens, UniProt P43405) (assay: Inhibition of Syk tyrosine phosphorylation activity (LANCE TR-FRET kinase assay)).
T1 construct: full length active recombinant SYK enzyme (Millipore, Calif.); purchased Millipore
Format: biochemical
From the text: This example illustrates methods for evaluating the compounds of the invention, along with results obtained for such assays. The in vitro and in vivo human Syk activities of the inventive compounds can be determined by various procedures known in the art, such as a test for their ability to inhibit the activity of human plasma Syk. […] The IC50 value is the concentration (in nM) of the compound required to provide 50% inhibition of human Syk proteolytic activity.
Potency of candidate molecules for inhibiting Syk tyrosine phosphorylation activity is assessed by measuring the ability of a test compound to inhibit Syk-mediated tyrosine phosphorylation of a Syk-specific substrate.
SYK tyrosine phosphorylation activity is measured using the LANCE™ Technology developed by Perkin Elmer Life and Analytical Sciences (Boston, Mass.). LANCE™ refers to homogeneous time resolved fluorometry applications using techniques such as time-resolved fluorescence resonance energy transfer assay (TR-FRET) (see generally for procedures in Perkin Elmer Application Note—How to Optimize a Tyrosine Kinase Assay Using Time Resolved Fluorescence-Based LANCE Detection, wwww.perkinelmer.com/lifesciences). The assay principle involves detection of a phosphorylated substrate using energy transfer from a phosphospecific europium-labeled antibody to streptavidin-allophycocyanin as an acceptor.
To test the ability of candidate molecules to inhibit SYK tyrosine phosphorylation activity, molecules are reconstituted in 30% DMSO and serially diluted 1:3 with the final dilution containing DMSO in the absence of the candidate molecule. The final DMSO concentration in the assay is 3%. Kinase assays are performed as a two part reaction. The first reaction is a kinase reaction and which comprises of a candidate molecule, full length active recombinant SYK enzyme (Millipore, Calif.) and biotin-labeled SYK-specific substrate biotin-[…]-OH. The second reaction involves termination of the kinase reaction and the simultaneous addition of the detection reagents-europium-labeled anti-phosphotyrosine reagent (Eu-W1024-PY100, Perkin Elmer, Boston, Mass.) and Streptavidin-Allophycocyanin detection reagent (SA-APC, Prozyme, Calif.). The kinase reaction is performed in a black U-bottom 96-well microtitre plate. The final reaction volume is 50 μL and contains a final concentration of 1 nM active SYK enzyme, 550 nM SYK-substrate, and 100 μM ATP diluted in a buffer containing 50 mM Tris pH 7.5, 5 mM MgCl2, and 1 mM DTT. The reaction is allowed to proceed for 1 hour at room temperature. The quench buffer contains 100 mM Tris pH 7.5, 300 mM NaCl2, 20 mM EDTA, 0.02% Brij35, and 0.5% BSA. The detection reagents are added to the reaction mixture at the following dilutions-1:500 for Eu-W1024-PY100 and 1:250 for SA-APC. The kinase reaction is terminated by the addition of 50 μL quench buffer containing the detection reagents. The detection is allowed to proceed for 1 hr at room temperature. Detection of the phosphorlated substrate in the absence and presence of inhibitors is measured in the TR-FRET instrument, Analyst HT (Molecular Probes, Sunnyvale, Calif.) and the condition for measurements are set up using CriterionHost Release 2.0 (Molecular Probes, Sunnyvale, Calif.). The settings used are a follows: excitation 360 nm, emission 665-7.5 nm, beam splitter 350 nm 50/50, flash 100 pulses, delay 60 us, integration 400 us, z-height 2 mm. Inhibition of SYK-tyrosine kinase activity is calculated as the maximum response observed in the presence of inhibitor, compared to that in the absence of inhibitor. IC50s were derived by non-linear regression analysis.

IC50 [nM] | SMILES
100 to 1000 | Cc1cc(C)cc(Nc2nc(Nc3ccc(S(N)(=O)=O)cc3)[nH]c(=O)c2C(N)=O)c1 [Example 61, 4-(4-(3,5-dimethylphenylamino)-5-carboxamide-6-oxo-1,6-dihydropyrimidin-2-ylamino)benzenesulfonamide]
> 1000 | CC(=O)N1CCN(c2ccc(Nc3nc(NC4CC4)c(C(N)=O)c(=O)[nH]3)cc2)CC1 [Example 62, 2-(4-(4-acetylpiperazin-1-yl)phenylamino)-4-(cyclopropylamino)-6-oxo-1,6-dihydropyrimidine-5-carboxamide]
100 to 1000 | Cc1cccc(Nc2nc(Nc3ccc(S(N)(=O)=O)cc3)nc(O)c2C(N)=O)c1 [Example 63, 4-(4-(3-methylphenylamino)-5-carboxamide-6-oxo-1,6-dihydropyrimidin-2-ylamino)benzenesulfonamide]
> 1000 | CC(=O)N1CCN(c2ccc(Nc3nc(O)c(C(N)=O)c(Nc4cccc(C)c4)n3)cc2)CC1 [Example 64, 4-(m-toluidino)-2-(4-(4-acetylpiperazin-1-yl)phenylamino)-6-hydroxypyrimidine-5-carboxamide]
10 to 100 | COc1nc(NC2CCCCC2N)nc(Nc2cc(C)cc(C)c2)c1C(N)=O (stereo not drawn) [Example 65, 2-(2-aminocyclohexylamino)-4-(3,5-dimethylphenylamino)-6-methoxypyrimidine-5-carboxamide]
100 to 1000 | COc1nc(N[C@H](C)C(N)=O)nc(Nc2cc(C)cc(C)c2)c1C(N)=O [Example 66, (R)-2-(1-amino-1-oxopropan-2-ylamino)-4-(3,5-dimethylphenylamino)-6-methoxypyrimidine-5-carboxamide]
100 to 1000 | COc1nc(N[C@H](CC(C)C)C(N)=O)nc(Nc2cc(C)cc(C)c2)c1C(N)=O [Example 67, (R)-2-(1-amino-4-methyl-1-oxopentan-2-ylamino)-4-(3,5-dimethylphenylamino)-6-methoxypyrimidine-5-carboxamide]
100 to 1000 | COc1nc(NC[C@H](C)N)nc(Nc2cc(C)cc(C)c2)c1C(N)=O [Example 68, (S)-2-(2-aminopropylamino)-4-(3,5-dimethylphenylamino)-6-methoxypyrimidine-5-carboxamide]
> 1000 | COc1nc(Nc2ccc(N3CCN(C(C)=O)CC3)cc2)nc(NC2CC2)c1C(N)=O [Example 69, 2-(4-(4-acetylpiperazin-1-yl)phenylamino)-4-(cyclopropylamino)-6-methoxypyrimidine-5-carboxamide]
> 1000 | COc1nc(Nc2ccc(N3CCOCC3)cc2)nc(Nc2cccc(C)c2)c1C(N)=O [Example 70, 4-(m-toluidino)-6-methoxy-2-(4-morpholinophenylamino)pyrimidine-5-carboxamide]
100 to 1000 | COc1nc(N[C@@H](C(N)=O)c2ccccc2)nc(Nc2cccc(C)c2)c1C(N)=O [Example 71, (R)-4-(m-toluidino)-2-(2-amino-2-oxo-1-phenylethylamino)-6-methoxypyrimidine-5-carboxamide]
100 to 1000 | COc1nc(N[C@@H](C(N)=O)c2ccccc2)nc(Nc2cc(C)cc(C)c2)c1C(N)=O [Example 72, (R)-2-(2-amino-2-oxo-1-phenylethylamino)-4-(3,5-dimethylphenylamino)-6-methoxypyrimidine-5-carboxamide]
> 1000 | COc1nc(Nc2ccc(N3CCOCC3)cc2)nc(NC2CC2)c1C(N)=O [Example 73, 4-(cyclopropylamino)-6-methoxy-2-(4-morpholinophenylamino)pyrimidine-5-carboxamide]
> 1000 | COc1nc(Nc2ccc(N3CCN(C(C)=O)CC3)cc2)nc(Nc2cccc(C)c2)c1C(N)=O [Example 74, 4-(m-toluidino)-2-(4-(4-acetylpiperazin-1-yl)phenylamino)-6-methoxypyrimidine-5-carboxamide]
> 1000 | CCNc1nc(Nc2cccc(C)c2)c(C(N)=O)c(OCCO)n1 [Example 75, 4-(m-toluidino)-2-(ethylamino)-6-(2-hydroxyethoxy)pyrimidine-5-carboxamide]
1 to 10 | CC[C@@H](Nc1nc(Nc2ccc3c(c2)OCO3)c(C(N)=O)c(=O)[nH]1)C(N)=O [Example 76, (R)-2-(1-amino-1-oxobutan-2-ylamino)-4-(benzo[d][1,3]dioxol-5-ylamino)-6-oxo-1,6-dihydropyrimidine-5-carboxamide]
1 to 10 | COc1cccc(Nc2nc(N[C@H](CC(C)C)C(N)=O)[nH]c(=O)c2C(N)=O)c1 [Example 77, (R)-2-(1-amino-4-methyl-1-oxopentan-2-ylamino)-4-(3-methoxyphenylamino)-6-oxo-1,6-dihydropyrimidine-5-carboxamide]
1 to 10 | CC(C)C[C@@H](Nc1nc(Nc2ccc3c(c2)OCCO3)c(C(N)=O)c(=O)[nH]1)C(N)=O [Example 78, (R)-2-(1-amino-4-methyl-1-oxopentan-2-ylamino)-4-(2,3-dihydrobenzo[b][1,4]dioxin-6-ylamino)-6-oxo-1,6-dihydropyrimidine-5-carboxamide]
< 1 | CC(C)C[C@@H](Nc1nc(Nc2ccc3c(c2)OCO3)c(C(N)=O)c(=O)[nH]1)C(N)=O [Example 79, (R)-2-(1-amino-4-methyl-1-oxopentan-2-ylamino)-4-(benzo[d][1,3]-dioxol-5-ylamino)-6-oxo-1,6-dihydropyrimidine-5-carboxamide]
1 to 10 | CC(C)C[C@@H](Nc1nc(Nc2cccc(-c3ncccc3F)c2)c(C(N)=O)c(=O)[nH]1)C(N)=O [Example 80, (R)-2-(1-amino-4-methyl-1-oxopentan-2-ylamino)-6-oxo-4-(3-(3-fluoropyridin-2-yl)phenylamino)-1,6-dihydropyrimidine-5-carboxamide]
1 to 10 | CC[C@@H](Nc1nc(Nc2cccc(-c3ncccc3F)c2)c(C(N)=O)c(=O)[nH]1)C(N)=O [Example 81, (R)-2-(1-amino-1-oxobutan-2-ylamino)-6-oxo-4-(3-(3-fluoropyridin-2-yl)phenylamino)-1,6-dihydropyrimidine-5-carboxamide]
< 1 | COc1ccc(Nc2nc(N[C@H](CC(C)C)C(N)=O)[nH]c(=O)c2C(N)=O)cc1OC [Example 83, (R)-2-(1-amino-4-methyl-1-oxopentan-2-ylamino)-4-(3,4-dimethoxyphenylamino)-6-oxo-1,6-dihydropyrimidine-5-carboxamide]
1 to 10 | CC[C@@H](Nc1nc(Nc2ccc3c(c2)OCCO3)c(C(N)=O)c(=O)[nH]1)C(N)=O [Example 86, (R)-2-(1-amino-1-oxobutan-2-ylamino)-4-(2,3-dihydrobenzo[b][1,4]dioxin-6-ylamino)-6-oxo-1,6-dihydropyrimidine-5-carboxamide]
1 to 10 | CC(C)C[C@@H](Nc1nc(Nc2cccc(OC(F)F)c2)c(C(N)=O)c(=O)[nH]1)C(N)=O [Example 87, (R)-2-(1-amino-4-methyl-1-oxopentan-2-ylamino)-4-(3-(difluoromethoxy)phenylamino)-6-oxo-1,6-dihydropyrimidine-5-carboxamide]
1 to 10 | CC[C@@H](Nc1nc(Nc2cccc(OC(F)F)c2)c(C(N)=O)c(=O)[nH]1)C(N)=O [Example 88, (R)-2-(1-amino-1-oxobutan-2-ylamino)-4-(3-(difluoromethoxy)phenylamino)-6-oxo-1,6-dihydropyrimidine-5-carboxamide]
1 to 10 | COc1ccc(Nc2nc(N[C@H](CC(C)C)C(N)=O)[nH]c(=O)c2C(N)=O)cc1 [Example 89, (R)-2-(1-amino-4-methyl-1-oxopentan-2-ylamino)-4-(4-methoxyphenylamino)-6-oxo-1,6-dihydropyrimidine-5-carboxamide]
1 to 10 | CC[C@@H](Nc1nc(Nc2ccc(OC)cc2)c(C(N)=O)c(=O)[nH]1)C(N)=O [Example 90, (R)-2-(1-amino-1-oxobutan-2-ylamino)-4-(4-methoxyphenylamino)-6-oxo-1,6-dihydropyrimidine-5-carboxamide]
